Results from PMC10648349, “Aromatic Diboronic Acids as Effective KPC/AmpC Inhibitors” (Molecules, 2023).
Converted amounts (≈) assume the structure as drawn. Read-outs that look alike come from different tables or passages of the source.

Tests used:
[1] = test system: C. albicans ATCC 90028; experiment: antifungal activity (disc-diffusion, MIC, MFC); format: cell-based; conditions: Candida albicans, ATCC90028; fluconazole by Etest
Procedure: (§1) Direct antimicrobial activity against Gram-negative and Gram-positive bacterial strains, as well as against yeast, was examined as previously described by the disc-diffusion test, the MIC determination assay, the MBC (for bacteria), and the MFC (for yeasts) determination tests. All the above-mentioned tests were performed according to EUCAST [71, 72] and CLSI [73, 74, 75, 76, 77] recommendations. The following reference agents were used: nitrofurantoin (for Gram-negative rods), linezolid (for Gram-positive bacteria), and fluconazole (in the case of fungi). The new aromatic diboronic acids were dissolved in DMSO (Sigma, St. Louis, MO, USA). In the disc-diffusion test, the concentration of new agents was 0.4 mg per disc.

[2] = test system: C. tropicalis IBA 171; experiment: antifungal activity (disc-diffusion, MIC, MFC); format: cell-based; conditions: Candida tropicalis, IBA171; fluconazole by Etest
Procedure: as §1

[3] = test system: C. tropicalis ATCC 750; experiment: antifungal activity (disc-diffusion, MIC, MFC); format: cell-based; conditions: Candida tropicalis, ATCC750; fluconazole by Etest
Procedure: as §1

[4] = test system: S. cerevisiae ATCC 9763; experiment: antifungal activity (disc-diffusion, MIC, MFC); format: cell-based; conditions: Saccharomyces cerevisiae, ATCC9763; fluconazole by Etest
Procedure: as §1

[5] = test system: C. krusei ATCC 6258; experiment: antifungal activity (disc-diffusion, MIC, MFC); format: cell-based, Candida krusei; conditions: Pichia kudriavzevii, ATCC6258; fluconazole by Etest
Procedure: as §1

[6] = test system: B. subtilis ATCC 6633; experiment: direct antimicrobial activity (disc-diffusion); format: cell-based; conditions: Bacillus subtilis, ATCC6633; 0.4 mg per disc, 9 mm disc (linezolid 0.03 mg, 6 mm disc); - no zone; read-out: Diameter of inhibition zone
Procedure: as §1

[7] = MTT-based viability assay; format: cell-based; conditions: human, 72 h, read-out: Viability of MRC-5 cells (% of viable cells ± SD)
Procedure: MRC-5 human fibroblasts (ECACC) were cultured in MEME, Minimum Essential Medium Eagle (Merck) supplemented with 10% fetal bovine serum (Merck), 2 mM l-glutamine, antibiotics (100 U/mL penicillin, 100 μg/mL streptomycin, Merck) and 1% non-essential amino acids (Merck). Cells were grown in 75 cm^2 cell culture flasks (Sarstedt) in a humidified atmosphere of CO2/air (5/95%) at 37 °C. MTT-based viability assay was conducted as described previously. Optical densities were measured at 570 nm using a BioTek microplate reader. All measurements were carried out in three replicates, and the results were expressed as a percent of viable cells versus control cells.

[8] = test system: S. aureus ATCC 6538P; experiment: direct antimicrobial activity (disc-diffusion, MIC, MBC); format: cell-based; conditions: Staphylococcus aureus, ATCC6538P
Procedure: as §1

[9] = test system: E. faecium ATCC 6057; experiment: as above; format: cell-based; conditions: Enterococcus faecium, ATCC6057
Procedure: as §1

[10] = test system: S. aureus ATCC 43300 MRSA; experiment: as above; format: cell-based; conditions: Staphylococcus aureus
Procedure: as §1

[11] = test system: S. epidermidis ATCC 12228; experiment: as above; format: cell-based; conditions: Staphylococcus epidermidis, ATCC12228
Procedure: as §1

[12] = test system: E. faecalis ATCC 29212; experiment: as above; format: cell-based; conditions: Enterococcus faecalis, ATCC29212
Procedure: as §1

[13] = test system: C. guilliermondii IBA 155; experiment: antifungal activity (disc-diffusion, MIC, MFC); format: cell-based, Candida guilliermondii; conditions: Meyerozyma guilliermondii, IBA155; fluconazole by Etest
Procedure: as §1

[14] = test system: C. parapsilosis ATCC 22019; experiment: antifungal activity (disc-diffusion, MIC, MFC); format: cell-based, Candida parapsilosis; conditions: Lodderomyces parapsilosis, ATCC22019; fluconazole by Etest
Procedure: as §1

[15] = test system: P. aeruginosa MUW 700 cAmpC-positive; experiment: combination disc test CDT-AmpC; format: cell-based; conditions: Pseudomonas aeruginosa; agent 0.3 mg per disc; read-out: Diameter of inhibition zone, CAZ-30 disc with agent
[16] = test system: K. pneumoniae ATCC 700603 ESBL-positive; experiment: combination disc test CDT-ESBL; format: cell-based; conditions: Klebsiella pneumoniae, ATCC700603; agent 0.3 mg per disc; read-out: Diameter of inhibition zone, CAZ-30 disc with agent
[17] = test system: E. coli 77 CMY-2-positive; experiment: combination disc test CDT-AmpC; format: cell-based; conditions: Escherichia coli; agent 0.3 mg per disc; read-out: Diameter of inhibition zone, CAZ-30 disc with agent
[18] = test system: K. pneumoniae 83 KPC-3(+), CTX-M-3(+); experiment: MIC of tested agent alone, microdilution; format: cell-based; conditions: Klebsiella pneumoniae; read-out: MIC of agent alone
Procedure: (§2) To examine the ability of tested agents to inhibit various carbapenemases and AmpC-enzymes, their synergy with antibiotics against β-lactamase-producing strains was assessed by checkerboard microdilution assay, with slight modification. Checkerboards were prepared in microtiter plates, with seven two-fold dilutions of β-lactams (1–64 mg/L) in the rows and three two-fold dilutions of tested agents and PBA (4–16 mg/L) in the columns. Tested agents’ concentrations were limited to the concentrations at which the newest commercially available BLIs (vaborbactam, relebactam, and avibactam) are used in susceptibility testing. Plates were inoculated and incubated as in the MIC microdilution assay. Parallel, MICs of tested agents and PBA alone were determined by the microdilution assay. Following the incubation, antibiotic MICs in the presence of each agent’s concentration were determined. Moreover, for the first well without growth found in each checkerboard row and column along the growth/non-growth interface, the fractional inhibitory concentration index (FICI) was calculated using the formula below:FICI = [(MIC of antibiotic in combination)/(MIC of antibiotic alone)] + [(MIC of the tested agent in combination)/(MIC of tested agent alone)].

[19] = test system: K. pneumoniae ATCC BAA-1705 KPC-2(+); experiment: MIC of tested agent alone, microdilution; format: cell-based; conditions: Klebsiella pneumoniae, ATCCBAA1705; read-out: MIC of agent alone
Procedure: as §2

[20] = test system: E. coli 76 KPC-2(+); experiment: MIC of tested agent alone, microdilution; format: cell-based; conditions: Escherichia coli; read-out: MIC of agent alone
Procedure: as §2

[21] = test system: P. aeruginosa MUW 700 AmpC(+); experiment: MIC of tested agent alone, microdilution; format: cell-based; conditions: Pseudomonas aeruginosa; read-out: MIC of agent alone
Procedure: as §2

[22] = test system: K. pneumoniae 81 KPC-3(+); experiment: MIC of tested agent alone, microdilution; format: cell-based; conditions: Klebsiella pneumoniae; read-out: MIC of agent alone
Procedure: as §2

[23] = test system: E. coli 77 CMY-2(+); experiment: MIC of tested agent alone, microdilution; format: cell-based; conditions: Escherichia coli; read-out: MIC of agent alone
Procedure: as §2

[24] = test system: K. pneumoniae ATCC BAA 1705 KPC-2-positive; experiment: combination disc test CDT-KPC; format: cell-based; conditions: Klebsiella pneumoniae, BAA1705; agent 0.3 mg per disc; read-out: Diameter of inhibition zone, MEM-10 disc with agent
[25] = 0.4 mg per disc, 9 mm disc (linezolid 0.03 mg, 6 mm disc), - no zone, read-out: Diameter of inhibition zone

| Compound | MIC [1] | MIC [2] | MIC [3] | MIC [4] | MIC [5] | zone of inhibition at 0.4 mg/disc [6] | MIC [8] | MIC [9] | MIC [10] | MIC [11] | MIC [12] | MIC [13] | MIC [14] | zone of inhibition at 300 µg/disc [15] | zone of inhibition at 300 µg/disc [16] | viability at 72 h, 12.5 mg/L ([7]; MRC-5 human fibroblasts) | viability at 72 h, 25 mg/L ([7]; MRC-5 human fibroblasts) | viability at 72 h, 50 mg/L ([7]; MRC-5 human fibroblasts) | zone of inhibition at 300 µg/disc [17] | MIC [18] | also measured |
| --- | --- | --- | --- | --- | --- | --- | --- | --- | --- | --- | --- | --- | --- | --- | --- | --- | --- | --- | --- | --- | --- |
| C[Si](C)(C)c1cc(B(O)O)c([Si](C)(C)C)cc1B(O)O [1k] | > 100 µg/mL | > 100 µg/mL | > 100 µg/mL | > 100 µg/mL | > 100 µg/mL | 11 mm | 100 µg/mL (≈ 322 µM) | 100 µg/mL (≈ 322 µM) | 100 µg/mL (≈ 322 µM) | 100 µg/mL (≈ 322 µM) | > 100 µg/mL | > 100 µg/mL | > 100 µg/mL |  |  |  |  |  |  |  | viability at 72 h, 12.5 mg/L [7]: 84.3 ± 0.9%; viability at 72 h, 25 mg/L [7]: 74.2 ± 3.5%; viability at 72 h, 50 mg/L [7]: 28.9 ± 1% |
| OB(O)c1cc(B(O)O)cc(B(O)O)c1 [4a, benzene-1,3,5-triboronic acid] | > 400 µg/mL | > 400 µg/mL | > 400 µg/mL | > 400 µg/mL | > 400 µg/mL |  | > 400 µg/mL | 400 µg/mL (≈ 1910 µM) | > 400 µg/mL | > 400 µg/mL | > 400 µg/mL | > 400 µg/mL | > 400 µg/mL | 16 mm | 14 mm | 102 ± 6.9% | 84.4 ± 6.4% | 87.9 ± 8.5% | 20 mm | > 400 µg/mL | MIC [19]: > 400 µg/mL; MIC [20]: > 400 µg/mL; MIC [21]: > 400 µg/mL; MIC [22]: > 400 µg/mL; MIC [23]: > 400 µg/mL; zone of inhibition at 300 µg/disc [24]: 6 mm |
| OB(O)c1c(F)c(F)c(F)c(F)c1B(O)O [3d] | 100 µg/mL (≈ 421 µM) | > 400 µg/mL | > 400 µg/mL | 200 µg/mL (≈ 841 µM) | 50 µg/mL (≈ 210 µM) | 12 mm | 200 µg/mL (≈ 841 µM) | 200 µg/mL (≈ 841 µM) | 400 µg/mL (≈ 1680 µM) | 200 µg/mL (≈ 841 µM) | 200 µg/mL (≈ 841 µM) | 200 µg/mL (≈ 841 µM) | > 400 µg/mL | 14 mm | 15 mm | 91.3 ± 7.4% | 100 ± 7.7% | 77.7 ± 15.5% | 21 mm | > 400 µg/mL | MIC [19]: > 400 µg/mL; MIC [20]: > 400 µg/mL; MIC [21]: > 400 µg/mL; MIC [22]: > 400 µg/mL; MIC [23]: > 400 µg/mL; zone of inhibition at 0.4 mg/disc [8, 25]: 20 mm; zone of inhibition at 0.4 mg/disc [9, 25]: 16 mm; zone of inhibition at 0.4 mg/disc [10, 25]: 18 mm; zone of inhibition at 0.4 mg/disc [11, 25]: 21 mm; zone of inhibition at 0.4 mg/disc [12, 25]: 12 mm; zone of inhibition at 300 µg/disc [24]: 6 mm |
